Measurements from paper PMC5788402, “Impact of Target Warhead and Linkage Vector on Inducing Protein Degradation: Comparison of Bromodomain and Extra-Terminal (BET) Degraders Derived from Triazolodiazepine (JQ1) and Tetrahydroquinoline (I-BET726) BET Inhibitor Scaffolds” (Journal of Medicinal Chemistry, 2017).

Tests used:
Brd4^BD2 = Brd4^BD2 (Homo sapiens, UniProt O60885); experiment: ITC binary titration, Brd4^BD2 into PROTAC; assay type: binding; details: Brd4^BD2 in syringe, PROTAC in cell
[1] = molecular target: VHL-EloC-EloB protein (VCB) (Homo sapiens, UniProt P40337); experiment: ITC binary titration, VCB into PROTAC; assay type: binding; details: VCB in syringe, PROTAC in cell
[2] = molecular target: VCB / Brd4^BD2 ternary complex (Homo sapiens, UniProt O60885+P40337); experiment: ITC ternary titration, VCB into Brd4^BD2–PROTAC complex; assay type: binding; details: for α: cooperativity, ratio between binary and ternary Kd; for α / ΔpKd ± uncertainty: Brd4^BD2; for cooperativity (α) Brd4–BD2: ternary complex formation with VCB and Brd4^BD2, as tabulated in Table 2; for ΔpKd ± uncertainty: ternary vs binary; for stoichiometry N / ΔG / ΔH / –TΔS: ternary, VCB in syringe, Brd4^BD2–PROTAC in cell
[3] = tested on: BET proteins Brd2, Brd3, Brd4; experiment: BET degradation profile in HeLa cells; assay type: cell-based; details: 24 h

Row | Structure (SMILES) | stoichiometry N (Brd4^BD2) | ΔG (Brd4^BD2) | ΔH (Brd4^BD2) | –TΔS (Brd4^BD2) | stoichiometry N [1] | ΔG [1] | ΔH [1] | –TΔS [1] | α [2] | cooperativity (α) Brd4–BD2 [2] | ΔpKd ± uncertainty [2] | stoichiometry N [2] | ΔG [2] | ΔH [2] | –TΔS [2] | concentration with increased levels of BET proteins (hook effect) [3]
1 | CC(=O)N1c2ccc(-c3ccc(C(=O)NCCOCCOCCOCC(=O)N[C@H](C(=O)N4C[C@H](O)C[C@H]4C(=O)NCc4ccc(-c5scnc5C)cc4)C(C)(C)C)cc3)cc2[C@H](Nc2ccc(Cl)cc2)C[C@@H]1C [compound 9, (2S,4R)-1-((S)-1-(4-((2S,4R)-1-Acetyl-4-((4-chlorophenyl)amino)-2-methyl-1,2,3,4-tetrahydroquinolin-6-yl)phenyl)-15-(tert-butyl)-1,13-dioxo-5,8,11-trioxa-2,14-diazahexadecan-16-oyl)-4-hydroxy-N-(4-(4-methylthiazol-5-yl)benzyl)pyrrolidine-2-carboxamide] | 1.15 ± 0.01 | –11.5 ± 0.3 kcal·mol^–1 | –9.74 ± 0.10 kcal·mol^–1 | –1.73 ± 0.30 kcal·mol^–1 | 0.96 ± 0.01 | –9.52 ± 0.13 kcal·mol^–1 | –6.18 ± 0.12 kcal·mol^–1 | –3.34 ± 0.18 kcal·mol^–1 | 0.5 | 0.46 | –0.34 ± 0.12 | 1.44 ± 0.02 | –9.06 ± 0.09 kcal·mol^–1 | –6.90 ± 0.11 kcal·mol^–1 | –2.16 ± 0.14 kcal·mol^–1 | 1 to 10 µM
2 | Cc1ncsc1-c1ccc(CNC(=O)[C@@H]2C[C@@H](O)CN2C(=O)[C@@H](NC(=O)COCCOCCNC(=O)C[C@@H]2N=C(c3ccc(Cl)cc3)c3c(sc(C)c3C)-n3c(C)nnc32)C(C)(C)C)cc1 [compound 5, (2S,4R)-1-((S)-2-(tert-Butyl)-14-((S)-4-(4-chlorophenyl)-2,3,9-trimethyl-6H-thieno[3,2-f][1,2,4]triazolo[4,3-a][1,4]diazepin-6-yl)-4,13-dioxo-6,9-dioxa-3,12-diazatetradecanoyl)-4-hydroxy-N-(4-(4-methylthiazol-5-yl)benzyl)pyrrolidine-2-carboxamide] | 0.81 ± 0.04 | –10.6 ± 0.06 kcal·mol^–1 | –11.2 ± 0.04 kcal·mol^–1 | – | 0.8 ± 0.05 | –9.34 ± 0.10 kcal·mol^–1 | –5.72 ± 0.47 kcal·mol^–1 | –3.61 ± 0.37 kcal·mol^–1 | 5.7 | 5.7 | 0.78 ± 0.16 | 0.76 ± 0.06 | –10.4 ± 0.2 kcal·mol^–1 | –5.36 ± 0.77 kcal·mol^–1 | –5.05 ± 0.62 kcal·mol^–1 | –
